Test results: patent US20250243174A1, “ANTITUMORAL COMPOUNDS” (PHARMA MAR, S.A., priority 2021, published 2025)

System: HGC-27 xenografts
Test: Example 6, gastric xenograft model HGC-27
Format: in vivo
Conditions: for mean body weight reduction: Day 2, compound 2 2.0, compound 3 1.0, PM060184 16 mg/kg; for TV, median (IQR) / Median survival time: iv Q7dx3; for TV, median (IQR): high dose: PM060184 16, Comp. 2 2, Comp. 3 1 mg/kg; for mean time frame with tumor remission: high dose: compound 2 2.0, compound 3 1.0, PM060184 16 mg/kg, last observed day 63; for animals in complete tumor remission status: highest dose: compound 2 2.0, compound 3 1.0 mg/kg; for antitumor activity compared to PM060184-treated group at 16 mg/kg: once treatments were stopped (days 28, 35), 2 at 2 mg/kg, 3 at 1 mg/kg
Procedure: Female athymic nu/nu mice (Harlan Laboratories Models, S.L. Barcelona, Spain or Envigo, Spain) were utilized for all experiments. Animal were housed in individually ventilated cages Sealsafe® Plus, Techniplast S.P.A.), up to ten per cage on a 12-hour light-dark cycle at 21-23° C. and 40-60% humidity. Mice were allowed free access to irradiated standard rodent diet (Tecklad 2914C) and sterilized water. Animals were acclimated for at least 5 days prior to tumor implantation with a tumor cell suspension.
HGC27 cells were maintained in vitro at 37° C. with 5% CO2 in Iscove's Modified Dulbecco's Medium (Sigma Aldrich, Co). Culture cells were passage every 3 to 5 days on reaching confluence. Each animal was subcutaneously implanted (on the right flank using 26G needle and a 1 cc syringe) at 4-6 weeks of age with 5×10^6 HGC-27 cells suspended in 0.05 mL of a solution consisting of 50% Matrigel® (Corning Incorporated Life Sciences), 50% medium without serum or antibiotics.
All treatments were intravenously administered on a weekly basis at their MTD, ¼ MTD and 1/16 MTD (high, medium and low dose).
Briefly: • 4 to 6 week-old athymic nu/nu female mice were subcutaneously implanted with tumor cells growing in culture. • When tumors reached a certain volume, tumor bearing animals (N=8-10/group) were randomly allocated into treatment groups. • Tumor dimensions and body weights were recorded 2-3 times per week starting from the first day of treatment (Day 0). Treatments producing >20% lethality and/or 20% net body weight loss were considered toxic. Tumor volume was calculated using the equation (a·b^2)/2, where a and b were the longest and shortest diameters, respectively. Animals were euthanized when their tumors reached ca. 2,000 mm^3 and/or severe necrosis was seen. • Median was calculated for tumor volume on each measurement day. • Antitumor effect was assessed comparing tumor volume data from groups following the 1st, 2nd, 3rd study weeks, or more depending on the case, using a two-tailed Mann-Whitney U test. The data are presented as medians and interquartile range (IQR). • Complete tumor regression (CR) was defined when tumor volume<63 mm^3 for 2 or more consecutive measurements. • Treatment tolerability was assessed by monitoring body weight evolution, clinical signs of systemic toxicity as well as evidences of local damage at the injection site.
PM060184 was provided in the form of freeze-dried vials of lyophilized product. Each vial was reconstituted with water for infusion to a concentration of 2.5 mg/mL.
Compounds 2 and 3 were provided in the powder form and were solubilized with hydroxy-propyl-β-cyclodextrin (HPβCD), reaching a concentration of 1 mg/ml or 0.2 mg/ml, respectively. Placebo was provided in the form of lyophilised cake containing 1.2 g of hydroxy-propyl-β-cyclodextrin (HPβCD) which was reconstituted with water for infusion.
In these experiments, compounds 2, 3 and PM060184, as well as placebo, were intravenously administered once per week for 3 consecutive weeks, on Days 0, 7 and 14, whenever it was possible.
The experiment was carried out as previously explained. When tumors reached ca. 165-175 mm^3, tumor bearing animals (N=8/group) were randomly allocated into the following treatment groups:
Treatments were initiated on Day 0.

[1] = high dose: PM060184 16.0, Comp. 2 2.0, Comp. 3 1.0 mg/kg, ud = group not reached mortality
[2] = low dose: PM060184 1.0, Comp. 2 0.125, Comp. 3 0.0625 mg/kg
[3] = medium dose: PM060184 4.0, Comp. 2 0.5, Comp. 3 0.25 mg/kg

Compound	mean body weight reduction	TV, median (IQR) (Day 7)	TV, median (IQR) (Day 14)	TV, median (IQR) (Day 21)	TV, median (IQR) (Day 28)	TV, median (IQR) (Day 35)	Median survival time [1]	mean time frame with tumor remission	animals in complete tumor remission status [%]	Median survival time [2] [days]	Median survival time [3] [days]	antitumor activity compared to PM060184-treated group at 16 mg/kg	animals that reached a complete remission (number out of eight) (PM060184 16 mg/kg (high-dose))
COC1=CC[C@@H]([C@@H](C)/C=C(C)/C=C\C=C/C(=O)N[C@H](C(=O)N/C=C\C[C@H](CC=C(C)C)OC(N)=O)C(C)(C)C)OC1=O [Compound 3]	ca. −13.1%	366.0 (300.1-479.8) mm3	177.1 (142.3-256.0) mm3	75.0 (65.6-84.4) mm3	66.7 (38.2-73.7) mm3	27.3 (21.4-41.4) mm3	ud	higher than 31.5 days	100	12	30	big difference, in terms of antitumor activity, statistically significant	
COC1=CC[C@@H]([C@@H](C)/C=C(C)/C=C\C=C/C(=O)N[C@H](C(=O)N/C=C\C[C@H](C/C=C(\C)F)OC(N)=O)C(C)(C)C)OC1=O [Compound 2]	ca. −13.1%	313.6 (237.3-482.4) mm3	143.2 (96.1-223.6) mm3	75.0 (51.6-75.0) mm3	42.5 (37.0-63.9) mm3	32.9 (20.4-36.6) mm3	ud	higher than 29.1 days	100	14	38.5	big difference, in terms of antitumor activity, statistically significant	
C/C=C\C[C@@H](C/C=C\NC(=O)[C@@H](NC(=O)\C=C/C=C\C(C)=C\[C@H](C)[C@@H]1CC=C(OC)C(=O)O1)C(C)(C)C)OC(N)=O [PM060184, reference compound]	ca. −4.1%	250.7 (212.8-433.0) mm3	124.8 (102.8-213.2) mm3	88.5 (68.2-118.3) mm3	114.4 (63.7-155.1) mm3	267.3 (100.4-414.0) mm3	56 days	18 days		15	27		three out of eight
